The text below walks through data of PubChem BioAssay (NCI).

Test systems include MCF7 breast; MDA-N; T-47D breast; DLD-1 colon; KM20L2 colon.
Common to all, as to assay: NCI tumour cell line growth inhibition, 48 h

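Protocol summary: plate cells (96-well), add compound at 5 concentrations, incubate 48 h, interpolate endpoints linearly. GI50: concentration for 50% inhibition of growth. TGI: total growth inhibition.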

Regarding `COc1cc(-c2oc3c(OC)c(O)cc(O)c3c(=O)c2OC)ccc1O`, the TGI in the test on MCF7 breast is above 75.6 µM; in the test with MDA-N, 59.5 µM; in the test with T-47D breast, 18.2 µM.

`COC(=O)c1nc(N)nc(C(=O)OC)c1C(=O)c1ccccc1`: the TGI in the test with DLD-1 colon and in the test with KM20L2 colon was above 100 µM in each case.

Regarding `Nc1ccccc1C#C/C=C\C#Cc1ccccc1F`, in the test on MCF7 breast, the GI50 is 3.2 µM and the TGI was above 100 µM. In the test with T-47D breast, the GI50 was 8.05 µM and the TGI is above 100 µM.

Turning to `CN(C)N=Nc1nn(C(=O)Nc2ccc(Cc3ccccc3)cc2)c2ccccc12`, the values for the GI50 in the test on MCF7 breast and in the test with T-47D breast were 0.387 µM and 0.0719 µM, respectively. Further, the TGI in the test on MCF7 breast and with T-47D breast was above 100 µM each time.

Turning to `O=C1NC(SCc2ccc(F)cc2)=N/C1=C/c1cccc(OCc2ccc(Cl)cc2)c1`, the values for the GI50 in the test with MCF7 breast and with T-47D breast were 19.7 µM and 13.9 µM, respectively. The TGI in the test on MCF7 breast and in the test on T-47D breast was above 100 µM each time.

For the molecule `Cc1cc(Cl)ccc1NC(=O)C(=O)Cc1occc(=O)c1O`, the TGI with DLD-1 colon and in the test with KM20L2 colon was above 100 µM each time.

As to `COC1OC(C(C)O)C2OC(C)(C)OC12` (configuration not stated), the TGI in the test on MCF7 breast, in the test on MDA-N and with T-47D breast was above 100 µM each time.

For the molecule `COc1cc2c(cc1OCCCCCn1c3ccccc3c3ccccc31)N=C[C@@H]1CCCN1C2=O`, the results for the GI50 in the test on MCF7 breast and in the test with T-47D breast were 2.33 µM and 2.79 µM, respectively. Moreover, the TGI with MCF7 breast is 9.19 µM; in the test on T-47D breast it was 9.24 µM.

In the case of `Nc1cc(-c2ccccc2)n(C(=O)Nc2ccc(Oc3ccccc3)cc2)n1`, in the test with MCF7 breast, the GI50 is 61.7 µM and the TGI is above 100 µM. Further, in the test with T-47D breast, the GI50 is 86.2 µM and the TGI is above 100 µM.

Regarding `CC1=C(C(=O)Nc2ccccc2C)C(c2ccccc2C)C(C(=O)Nc2ccccc2C)=C(C)N1`, the TGI was 33.4 µM in the test with DLD-1 colon and 38.9 µM in the test on KM20L2 colon.

For the molecule `COc1ccc(OC)c(/C=N/N=C2\C(=O)Nc3c(Cl)cc(Cl)cc32)c1`, the TGI in the test with MCF7 breast was above 100 µM; with MDA-N it was 40.9 µM.

Consider `CC1=NN(C(=O)c2nn(-c3ccc(Cl)cc3)cc2O)C(=O)C1`, for which, in the test on MCF7 breast, the GI50 was 4.65 µM and the TGI is above 100 µM. In the test on T-47D breast, the GI50 is 2.87 µM and the TGI is above 100 µM.

In the case of `c1ccc(/C(=N\Nc2ccc3ccccc3n2)c2ccccn2)cc1`, in the test on MCF7 breast, the GI50 is 0.907 µM and the TGI amounted to 11.5 µM. Further, in the test on T-47D breast, the GI50 was 0.315 µM and the TGI came to 26 µM.

As to `Cc1ccc(-c2c3c(N)c4c(nc3nc3c2c(C)nn3-c2ccccc2)CCC4)cc1`, in the test on MCF7 breast, the GI50 is 1.75 µM and the TGI is 4.34 µM. Besides, in the test on T-47D breast, the GI50 is 2.18 µM and the TGI amounted to 5.08 µM.

Turning to `Cn1c2ccccc2c2[nH]c3ccccc3c(=O)c21`, the TGI in the test with MCF7 breast, with MDA-N and with T-47D breast was above 100 µM throughout.

Consider `O=C(CC(=O)c1ccccc1)C(=O)NC12CC3CC(CC(C3)C1)C2`, for which the values for the TGI in the test with DLD-1 colon and in the test on KM20L2 colon were above 70 µM and above 100 µM, respectively.

`Cc1ccccc1NC(=O)c1cc2ccccc2cc1O`: in the test on MCF7 breast, the GI50 was 3.46 µM and the TGI was found to be 37.1 µM. For the same molecule, in the test on T-47D breast, the GI50 is 3.51 µM and the TGI was above 100 µM.

For `CCc1nc(N)nc(N)c1C#CC(C)c1cc(-c2ccnc(C)c2)c2oc(C)nc2c1` (configuration not stated), in the test with MCF7 breast, the GI50 was 0.0118 µM and the TGI worked out at 11.9 µM. In addition, in the test with T-47D breast, the GI50 was 0.283 µM and the TGI came out at 8.5 µM.

With `CC(=O)n1c(-c2ccc(Cl)c(Cl)c2)cn(-c2ccc(Cl)cc2)c1=O`, in the test on MCF7 breast, the GI50 was 30.8 µM and the TGI is above 100 µM. In the test with T-47D breast, the GI50 was 19.3 µM and the TGI worked out at 49.5 µM.

Take `COc1cc(/C=C\c2ccc(Cl)cc2)cc(OC)c1OC`: the values for the TGI with DLD-1 colon and in the test on KM20L2 colon were above 100 µM and 0.372 µM, respectively.

As for `O=C(O)c1cc(=O)c2cc(C(=O)c3cccs3)c(Cl)c(Cl)c2o1`, the TGI in the test with DLD-1 colon and with KM20L2 colon was above 100 µM each time.

In the case of `CCOC(=O)c1cn(CC)c2cc3c(cc2c1=O)SCS3`, the TGI with DLD-1 colon and with KM20L2 colon was above 100 µM each time.

On to `O=C(NN1C(=O)CSC12CCC(c1ccccc1)CC2)c1[nH]c2ccc(F)cc2c1-c1ccccc1` (configuration not stated), for which, in the test with MCF7 breast, the GI50 is 25.3 µM and the TGI was determined as 71.8 µM. Besides, in the test on T-47D breast, the GI50 is 33.5 µM and the TGI is above 100 µM.

For the molecule `CCOC(=O)/C=C1\Oc2ccccc2C1(C)O` (configuration not stated), the TGI with DLD-1 colon and in the test with KM20L2 colon was above 100 µM in each case.

In the case of `CC(=O)O[C@H]1CC[C@@]2(C)C(=C/C(=N\[N+](=O)[O-])[C@H]3C4CCC([C@H](C)CCCC(C)C)[C@@]4(C)CCC32)C1` (some centres not stated), the TGI in the test on DLD-1 colon and with KM20L2 colon was above 100 µM each time.

For `NCCSC(C[N+](=O)[O-])c1ccccc1Cl` (configuration not stated), in the test on MCF7 breast, the GI50 was 1.13 µM and the TGI is 3.2 µM. Also, in the test on T-47D breast, the GI50 was 2.23 µM and the TGI turned out to be 9.09 µM.

Take `O=CN1N=C(c2ccc(Nc3ccnc4cc(Cl)ccc34)cc2)CC1c1ccc(Cl)cc1` (configuration not stated): the GI50 is 0.48 µM with MCF7 breast and 1.56 µM in the test on T-47D breast. For the same molecule, the TGI in the test on MCF7 breast and in the test with T-47D breast was above 100 µM in each case.

As for `O=c1[nH]cnc2c1ncn2CCCCO`, the TGI with DLD-1 colon and in the test on KM20L2 colon was above 100 µM throughout.

For the molecule `CCSC(=O)C1(C)OC2CCCCC2C1=O` (configuration not stated), the TGI with DLD-1 colon and in the test on KM20L2 colon was above 100 µM throughout.

`CCCC(CCC)C(=O)OCC1(CO)C/C(=C\c2ccc(C(F)(F)F)cc2)C(=O)O1` (configuration not stated): in the test on MCF7 breast, the GI50 was 17.4 µM and the TGI was 33.9 µM. For the same molecule, in the test with T-47D breast, the GI50 is 14.7 µM and the TGI amounted to 29.4 µM.

As to `COc1cc2nncc(SCc3ccc(Cl)c(Cl)c3)c2cc1OC`, the TGI with KM20L2 colon, with MCF7 breast, with MDA-N and with T-47D breast was above 100 µM each time.
